The target in one test is T1, hNPY1R (Homo sapiens, UniProt P25929).
T1 construct: SK-N-MC cells endogenously expressing the NPY1R receptor; endogenous in cells; host or cells: SK-N-MC cells (crude membrane fractions)
T1 sequence (P25929 1-384): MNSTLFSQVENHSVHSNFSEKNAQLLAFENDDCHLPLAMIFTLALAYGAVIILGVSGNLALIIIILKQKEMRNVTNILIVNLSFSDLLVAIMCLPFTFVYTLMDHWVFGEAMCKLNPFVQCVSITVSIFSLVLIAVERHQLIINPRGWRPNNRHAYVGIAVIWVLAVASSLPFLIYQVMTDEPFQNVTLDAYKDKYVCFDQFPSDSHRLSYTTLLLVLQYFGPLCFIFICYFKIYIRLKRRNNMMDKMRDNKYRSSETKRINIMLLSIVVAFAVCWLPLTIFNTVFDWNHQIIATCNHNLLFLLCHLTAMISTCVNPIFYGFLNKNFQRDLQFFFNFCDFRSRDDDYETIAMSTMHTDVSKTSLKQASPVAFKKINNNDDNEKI
Nature of the test: NPY1R binding assay: SK-N-MC membranes, [125I]-Peptide YY (human) competition. The conditions noted are these: data obtained after 60 minutes at 37° C.; SK-N-MC membranes; [125I]-Peptide YY 0.05 nM; read-out: hNPY1R binding Ki* †.
Usually Ki stands for a dissociation constant, usually derived from enzyme kinetics or from competition with a known ligand. As for `CCC(=O)NCCNC(=O)/N=C(/N)NCCC[C@@H](NC(=O)C(c1ccccc1)c1cccc(OCCOCCOCCOCCNC(=O)CN2CCN(CC(=O)O)CCN(CC(=O)O)CCN(CC(=O)O)CC2)c1)C(=O)NCc1ccc(O)cc1` (stereo partly drawn) [Compound 104, 2,2′,2″-(10-(14-(3-((4R,Z)-9-amino-4-((4-hydroxybenzyl)carbamoyl)-2,11,16-trioxo-1-phenyl-3,8,10,12,15-pentaazaoctadec-9-en-1-yl)phenoxy)-2-oxo-6,9,12-trioxa-3-azatetradecyl)-1,4,7,10-tetraazacyclododecane-1,4,7-triyl)triacetic acid], the Ki is below 10 nM.

For `CCC(=O)NCCNC(=O)/N=C(/N)NCCC[C@@H](NC(=O)C(c1ccccc1)c1cccc(OCCOCCNC(=O)CN2CCN(CC(=O)O)CCN(CC(=O)O)CCN(CC(=O)O)CC2)c1)C(=O)NCc1ccc(O)cc1` (stereo partly drawn) [Compound 106, 2,2′,2″-(10-(2-((2-(2-(3-((4R,Z)-9-amino-4-((4-hydroxybenzyl)carbamoyl)-2,11,16-trioxo-1-phenyl-3,8,10,12,15-pentaazaoctadec-9-en-1-yl)phenoxy)ethoxy)ethyl)amino)-2-oxoethyl)-1,4,7,10-tetraazacyclododecane-1,4,7-triyl)triacetic acid], the Ki was below 10 nM.

As to `CCC(=O)NCCNC(=O)/N=C(/N)NCCC[C@@H](NC(=O)C(c1ccccc1)c1cccc(OCCCCNC(=O)CN2CCN(C(=O)CN3CCN(CC(=O)O)CCN(CC(=O)O)CCN(CC(=O)O)CC3)CC2)c1)C(=O)NCc1ccc(O)cc1` (single isomer, unassigned) [Compound 118B], the inhibition constant Ki is below 10 nM.

The test is the same for the next values; noted with them: data obtained after 120 minutes at rt; SK-N-MC membranes; [125I]-Peptide YY; read-out: hNPY.R binding Ki* ††.
As to `CCC(=O)NCCNC(=O)/N=C(/N)NCCC[C@@H](NC(=O)C(c1ccccc1)c1ccc(NCCCNC(=O)[C@H](N)CCCCNC(=O)CN2CCN(CC(=O)O)CCN(CC(=O)O)CCN(CC(=O)O)CC2)cc1)C(=O)NCc1ccc(O)cc1` (single isomer, unassigned) [Compound 132B], the Ki is below 10 nM.

Consider `CCC(=O)NCCNC(=O)/N=C(/N)NCCC[C@@H](NC(=O)C(c1ccccc1)c1cccc(OCCCCNC(=O)[C@@H](Cc2ccc3ccccc3c2)NC(=O)CCNC(=O)CN2CCN(CC(=O)O)CCN(CC(=O)O)CCN(CC(=O)O)CC2)c1)C(=O)NCc1ccc(O)cc1` (stereo partly drawn) [Compound 150, 2,2′,2″-(10-(2-((3-(((2R)-1-((4-(3-((4R,Z)-9-amino-4-((4-hydroxybenzyl)carbamoyl)-2,11,16-trioxo-1-phenyl-3,8,10,12,15-pentaazaoctadec-9-en-1-yl)phenoxy)butyl)amino)-3-(naphthalen-2-yl)-1-oxopropan-2-yl)amino)-3-oxopropyl)amino)-2-oxoethyl)-1,4,7,10-tetraazacyclododecane-1,4,7-triyl)triacetic acid], for which the Ki was below 10 nM.

Turning to `CCC(=O)NCCNC(=O)/N=C(/N)NCCC[C@@H](NC(=O)C(c1ccccc1)c1ccc(NCCNC(=O)[C@H](N)CCCNC(=O)CN2CCN(CC(=O)O)CCN(CC(=O)O)CCN(CC(=O)O)CC2)cc1)C(=O)NCc1ccc(O)cc1` (single isomer, unassigned) [Compound 143B], the Ki is below 10 nM.

With `CCNC(=O)/N=C(/N)NCCC[C@@H](NC(=O)C(c1ccccc1)c1ccc(NCCCNC(=O)[C@H](N)CCCNC(=O)[C@@H](Cc2ccc(-c3ccccc3)cc2)NC(=O)CN2CCN(CC(=O)O)CCN(CC(=O)O)CCN(CC(=O)O)CC2)cc1)C(=O)NCc1ccc(O)cc1` (single isomer, unassigned) [Compound 151], the Ki was below 10 nM.

For `CCC(=O)NCCNC(=O)/N=C(/N)NCCC[C@@H](NC(=O)C(c1ccccc1)c1ccc(NCCCNC(=O)CN2CCC(NC(=O)CN3CCN(CC(=O)O)CCN(CC(=O)O)CCN(CC(=O)O)CC3)CC2)cc1)C(=O)NCc1ccc(O)cc1` (single isomer, unassigned) [Compound 133A], the Ki was below 10 nM.

As to `CCC(=O)NCCNC(=O)/N=C(/N)NCCC[C@@H](NC(=O)C(c1ccccc1)c1ccc(NCCCNC(=O)[C@H](N)CCCNC(=O)CN2CCN(CC(=O)O)CCN(CC(=O)O)CCN(CC(=O)O)CC2)cc1)C(=O)NCc1ccc(O)cc1` (single isomer, unassigned) [Compound 135A], the Ki is below 10 nM.

Regarding `CCNC(=O)/N=C(/N)NCCC[C@@H](NC(=O)[C@@H](c1ccccc1)c1ccc(NCCCNC(=O)[C@H](N)CCCCNC(=O)CN2CCN(CC(=O)O)CCN(CC(=O)O)CCN(CC(=O)O)CC2)cc1)C(=O)NCc1ccc(O)cc1` (single isomer, unassigned) [Compound 144A], the Ki was below 10 nM.

For the compound `CCC(=O)NCCNC(=O)/N=C(/N)NCCC[C@@H](NC(=O)C(c1ccccc1)c1ccc(NCCCNc2c(NCCCCCCNC(=O)CN3CCN(CC(=O)O)CCN(CC(=O)O)CCN(CC(=O)O)CC3)c(=O)c2=O)cc1)C(=O)NCc1ccc(O)cc1` (single isomer, unassigned) [Compound 156], the Ki was below 10 nM.

As for `CCC(=O)NCCNC(=O)/N=C(/N)NCCC[C@@H](NC(=O)C(c1ccccc1)c1ccc(NCCCNc2c(NCCNC(=O)[C@@H](CN)NC(=O)CN3CCN(CC(=O)O)CCN(CC(=O)O)CCN(CC(=O)O)CC3)c(=O)c2=O)cc1)C(=O)NCc1ccc(O)cc1` (single isomer, unassigned) [Compound 137A], the Ki was below 10 nM.

Take `CCC(=O)NCCNC(=O)/N=C(/N)NCCC[C@@H](NC(=O)C(c1ccccc1)c1cccc(OCCCCNC(=O)C[C@H]2NC(=O)[C@@H](CCCNC(=O)CN3CCN(CC(=O)O)CCN(CC(=O)O)CCN(CC(=O)O)CC3)NC2=O)c1)C(=O)NCc1c(F)cc(O)cc1F` (single isomer, unassigned) [Compound 164B]: the inhibition constant Ki is below 10 nM.

`CCC(=O)NCCNC(=O)/N=C(/N)NCCC[C@@H](NC(=O)C(c1ccccc1)c1ccc(NCCCNC(=O)[C@H](N)CCCNC(=O)CN2CCC(NC(=O)CN3CCN(CC(=O)O)CCN(CC(=O)O)CCN(CC(=O)O)CC3)CC2)cc1)C(=O)NCc1ccc(O)cc1` (single isomer, unassigned) [Compound 146B]: the Ki was below 10 nM.

For the origin of these results see patent US20240226343A1, “NEUROPEPTIDE Y1 RECEPTOR (NPY1R) TARGETED THERAPEUTICS AND USES THEREOF” (RADIONETICS ONCOLOGY, INC., priority 2022, published 2024).
